Laboratory results reported in patent US11905230B2, “Phenoxyacetic acid derivatives, preparation method thereof and use thereof as medicament” (CHINA PHARMACEUTICAL UNIVERSITY, priority 2017, dated 2024).

How the values were obtained:
[1] = Evaluation of hepatotoxicity: serum ALT, AST and TBIL after 4 weeks of dosing; type: in vivo; conditions: for ALT (IU/L) / AST (IU/L) / TBIL (IU/L): serum, once a day for consecutive 4 weeks, x ± SD, n = 6
Procedure: Experimental example 3 Evaluation of hepatotoxicity of the compounds of the present invention:
The test compounds were administered once a day for consecutive 4 weeks, blood was taken, and the contents of alanine aminotransferase (ALT), aspartate aminotransferase (AST), and total bilirubin (TBIL) were measured.

hGPR40 receptor = hGPR40 receptor (Homo sapiens (Human), UniProt O14842); assay: agonistic activity on hGPR40-CHO stably transfected cells (Fluo-4 / FLIPR); type: cell-based; conditions: for activation at 0.1 µM: 100 nM, relative to linoleic acid well; for EC50: mean ± SD of three determinations
Procedure: Experimental example 1 The agonistic activity of the compounds of the present invention on hGPR40-CHO stably transfected cells
The present invention used the following method to determine the GPR40 agonistic activity of the compounds of the invention:
hGPR40-CHO stably transfected cells were seeded into a 96-well plate at a density of 3×10^4/well, and incubated overnight in a 37° C., 5% CO2 cell incubator; the medium was discarded, 100 μl of HBSS was added to each well, and 100 μl of Fluo-4 dye solution containing Probenecid was added and incubated at 37° C. for 90 min. After the incubation, the Fluo-4 dye solution was sucked out, 100 μl of HBSS buffer was added, and the dye was washed away; 100 μl of HBSS containing Probenecid was added to each well, and incubated at 37° C. for 10 min; different concentrations of drugs were added to each well of the 96-well plate and FLIPR (Molecular Devices) was used for readings according to the parameter setting table. The experimental results were analyzed.

normal mice = assay: Oral glucose tolerance test (OGTT) in normal mice; type: in vivo, Kunming mice; conditions: for effect on oral glucose tolerance in mice (in words): OGTT in normal mice, 20 mg/kg; for blood glucose level at 15 min / blood glucose level at 0 min / blood glucose level at 30 min / blood glucose level at 60 min / blood glucose level at 120 min: OGTT, 20 mg/kg by gavage, n = 8, in mmol/L (unit assumed); for blood glucose level at 15 min: 15 min after glucose load; for blood glucose level at 0 min: 30 min after dosing, before glucose load; for blood glucose level at 30 min: 30 min after glucose load; for blood glucose level at 60 min: 60 min after glucose load; for blood glucose level at 120 min: 120 min after glucose load
Procedure: Experimental example 2 In vivo hypoglycemic activity of the compounds of the present invention can be determined by using an assay system as described below:
The mice were fasted for 12 hours before experiment and water was taken freely, each group was administrated by gavage, blood was taken from the tail, and the blood glucose level was measured (recorded as −30 min).

GPR120 = GPR120 (Homo sapiens (Human), UniProt Q5NUL3); assay: selective experiment of GPR120 agonism; type: cell-based; conditions: selectivity experiment; read-out: EC K (EC50) of GPR120 agonism
PPARγ = PPARγ (Homo sapiens (Human), UniProt P37231); assay: selective experiment of PPARγ agonism; type: cell-based; conditions: selectivity experiment; read-out: EC K (EC50) of PPARγ agonism
Chain of PPARγ (P37231 whole entry, species assumed): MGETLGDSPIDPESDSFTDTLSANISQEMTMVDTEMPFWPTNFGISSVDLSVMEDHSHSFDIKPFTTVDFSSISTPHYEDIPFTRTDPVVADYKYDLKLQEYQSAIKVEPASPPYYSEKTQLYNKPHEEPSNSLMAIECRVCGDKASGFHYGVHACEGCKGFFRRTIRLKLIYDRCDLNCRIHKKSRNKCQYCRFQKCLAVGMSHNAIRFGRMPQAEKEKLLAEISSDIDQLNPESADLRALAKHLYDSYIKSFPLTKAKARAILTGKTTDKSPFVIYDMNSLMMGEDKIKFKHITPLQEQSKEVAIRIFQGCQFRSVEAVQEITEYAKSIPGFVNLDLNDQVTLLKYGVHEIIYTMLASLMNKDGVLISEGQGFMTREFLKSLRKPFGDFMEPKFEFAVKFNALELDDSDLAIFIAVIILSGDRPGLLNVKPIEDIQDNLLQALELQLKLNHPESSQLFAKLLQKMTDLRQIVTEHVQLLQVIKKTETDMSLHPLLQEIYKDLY

Chain of hGPR40 receptor (O14842 whole entry): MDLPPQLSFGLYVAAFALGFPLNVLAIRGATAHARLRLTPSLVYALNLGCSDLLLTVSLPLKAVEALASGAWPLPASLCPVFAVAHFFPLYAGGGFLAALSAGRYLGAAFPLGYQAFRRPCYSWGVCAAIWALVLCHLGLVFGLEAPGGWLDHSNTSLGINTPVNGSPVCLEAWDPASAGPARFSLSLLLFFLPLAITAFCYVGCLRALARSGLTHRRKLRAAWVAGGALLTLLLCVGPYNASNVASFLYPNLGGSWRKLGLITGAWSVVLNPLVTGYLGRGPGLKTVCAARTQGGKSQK
Chain of GPR120 (Q5NUL3 whole entry, species assumed): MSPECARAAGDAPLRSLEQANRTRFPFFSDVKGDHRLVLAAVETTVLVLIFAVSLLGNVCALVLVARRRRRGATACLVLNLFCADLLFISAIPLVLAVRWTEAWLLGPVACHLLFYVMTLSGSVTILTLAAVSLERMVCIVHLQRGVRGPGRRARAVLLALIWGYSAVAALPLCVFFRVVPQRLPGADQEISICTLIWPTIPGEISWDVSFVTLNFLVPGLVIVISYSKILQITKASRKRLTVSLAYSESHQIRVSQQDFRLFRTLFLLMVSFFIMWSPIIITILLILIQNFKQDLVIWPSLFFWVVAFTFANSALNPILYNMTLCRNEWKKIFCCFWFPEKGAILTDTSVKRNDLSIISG

Structure (SMILES)	activation at 0.1 µM (hGPR40 receptor) [%]	melting point [°C]	also measured
Cc1ccccc1-c1cccc(CNc2ccc(OCC(=O)O)c(F)c2)c1 [Compound I-3, 2-(4-((2′-methyl-[1,1′-biphenyl]-3-methylene)amino)-2-fluorophenoxy)acetic acid]	87		AST, ALT and TBIL compared with STZ (blank) group (in words) ([1]; 4 weeks of dosing): equivalent to the blank group; ALT (IU/L) [1]: 51.23 ± 5.6 IU/L; AST (IU/L) [1]: 103.27 ± 9.98 IU/L; TBIL (IU/L) [1]: 2.55 ± 0.4 IU/L; EC50 (hGPR40 receptor): 4.8 ± 3.5 nM; effect on oral glucose tolerance in mice (in words) (normal mice): significantly improve oral glucose tolerance; blood glucose level at 15 min (normal mice): 7.13 ± 0.29; blood glucose level at 0 min (normal mice): 4.61 ± 0.63; blood glucose level at 30 min (normal mice): 6.94 ± 0.38; blood glucose level at 60 min (normal mice): 5.06 ± 0.23; blood glucose level at 120 min (normal mice): 4.38 ± 0.29; EC50 (GPR120): 54 µM; EC50 (PPARγ): 83 µM
N#Cc1ccccc1-c1cccc(CNc2ccc(OCC(=O)O)c(F)c2)c1 [Compound I-7, 2-(4-((2′-Nitrile-[1,1′-biphenyl]-3-methylene)amino)-2-fluorophenoxy)acetic acid]	45	137 to 140	
Cc1noc(C)c1-c1cccc(CNc2ccc(OCC(=O)O)c(F)c2)c1 [Compound I-14, 2-(4-((3-(3,5-dimethylisoxazol-4-yl)benzyl)amino)-2-fluorophenoxy)acetic acid]	54	72 to 73	
Cc1cc(OC(C)C)ccc1-c1cccc(CNc2ccc(OCC(=O)O)c(F)c2)c1 [Compound I-22]	65	134 to 137	
O=C(O)COc1ccc(NCc2cccc(-c3ccccc3Cl)c2)cc1 [Compound I-24, 2-(4-((2′-chloro-[1,1′-biphenyl]-3-methylene)amino)phenoxy)acetic acid]	80	124 to 126	ALT (IU/L) [1]: 52.68 ± 5.7 IU/L; AST (IU/L) [1]: 116.78 ± 12.4 IU/L; TBIL (IU/L) [1]: 2.56 ± 0.2 IU/L; EC50 (hGPR40 receptor): 18.6 ± 2.7 nM; effect on oral glucose tolerance in mice (in words) (normal mice): significantly improve oral glucose tolerance; blood glucose level at 15 min (normal mice): 9.22 ± 0.57; blood glucose level at 0 min (normal mice): 4.39 ± 0.34; blood glucose level at 30 min (normal mice): 8.04 ± 0.49; blood glucose level at 60 min (normal mice): 5.29 ± 0.34; blood glucose level at 120 min (normal mice): 4.33 ± 0.33
Cc1ccccc1-c1cccc(CNc2ccc(OCC(=O)O)cc2)c1 [Compound I-25, 2-(4-((2′-methyl-[1,1′-biphenyl]-3-methylene)amino)phenoxy)acetic acid]	82	101 to 104	ALT (IU/L) [1]: 51.78 ± 4.5 IU/L; AST (IU/L) [1]: 116.54 ± 8.9 IU/L; TBIL (IU/L) [1]: 2.69 ± 0.4 IU/L; EC50 (hGPR40 receptor): 17.3 ± 3.3 nM; effect on oral glucose tolerance in mice (in words) (normal mice): significantly improve oral glucose tolerance; blood glucose level at 15 min (normal mice): 8.47 ± 0.45; blood glucose level at 0 min (normal mice): 4.48 ± 0.39; blood glucose level at 30 min (normal mice): 7.23 ± 0.39; blood glucose level at 60 min (normal mice): 5.11 ± 0.29; blood glucose level at 120 min (normal mice): 4.29 ± 0.39
O=C(O)COc1ccc(NCc2cccc(-c3ccccc3F)c2)cc1 [Compound I-26, 2-(4-((2′-fluoro-[1,1′-biphenyl]-3-methylene)amino)phenoxy)acetic acid]	61	111 to 112	
O=C(O)COc1ccc(NCc2cccc(-c3ccccc3OC(F)(F)F)c2)cc1 [Compound I-32, 2-(4-((2′-trifluoromethoxy-[1,1′-biphenyl]-3-methylene)amino)phenoxy)acetic acid]	46	107 to 110	
O=C(O)COc1ccc(NCc2cccc(-c3ccccc3OC(F)(F)F)c2)cc1F [Compound I-33]	50	111 to 113	
Cc1cc(OC(F)(F)F)ccc1-c1cccc(CNc2ccc(OCC(=O)O)c(F)c2)c1 [Compound I-35, 2-(4-((4′-trifluoromethoxy-2′-methyl-[1,1′-biphenyl]-3-methylene)amino)2-fluorophenoxy)acetic acid]	78	123 to 125	

Now from value to compound, other results behind:

activation at 0.1 µM (hGPR40 receptor) [%]	melting point [°C]	Structure (SMILES)	also measured
65	131 to 134	COc1cc(C)c(-c2cccc(CNc3ccc(OCC(=O)O)cc3)c2)c(C)c1 [Compound I-18, 2-(4-((4′-methoxy-2′,6′-dimethyl-[1,1′-biphenyl]-3-methylene)amino)phenoxy)acetic acid]	
75	121 to 124	COc1ccc(-c2cccc(CNc3ccc(OCC(=O)O)cc3)c2)c(C)c1 [Compound I-21]	
62	132 to 135	Cc1cc(OC(C)C)ccc1-c1cccc(CNc2ccc(OCC(=O)O)cc2)c1 [Compound I-23]	
69	111 to 114	Cc1ccc(-c2cccc(CNc3ccc(OCC(=O)O)cc3)c2)c(Cl)c1 [Compound I-27, 2-(4-((2′-chloro-4′-methyl-[1,1′-biphenyl]-3-methylene)amino)phenoxy)acetic acid]	
64	127 to 130	Cc1cc(OC(F)(F)F)cc(C)c1-c1cccc(CNc2ccc(OCC(=O)O)c(F)c2)c1 [Compound I-34, 2-(4-((4′-trifluoromethoxy-2′,6′-dimethyl-[1,1′-biphenyl]-3-methylene)amino)-2-fluorophenoxy)acetic acid]	
56	137 to 139	CCOCCOc1cc(C)c(-c2cccc(CNc3ccc(OCC(=O)O)c(F)c3)c2)c(C)c1 [Compound I-36, 2-(2-fluoro-4-((4′-(2-ethoxyethoxy)-2′,6′-dimethyl-[1,1′-biphenyl]-3-methylene)amino)phenoxy)acetic acid]	
50	133 to 136	CCOCCOc1cc(C)c(-c2cccc(CNc3ccc(OCC(=O)O)cc3)c2)c(C)c1 [Compound I-37, 2-(4-((4′-(2-ethoxyethoxy)-2′,6′-dimethyl-[1,1′-biphenyl]-3-methylene)amino)phenoxy)acetic acid]	
64	136 to 138	COCOc1cc(C)c(-c2cccc(CNc3ccc(OCC(=O)O)c(F)c3)c2)c(C)c1 [Compound I-38, 2-(2-fluoro-4-((4′-(2-methoxymethoxy)-2′,6′-dimethyl-[1,1′-biphenyl]-3-methylene)amino)phenoxy)acetic acid]	
60	132 to 134	COCOc1cc(C)c(-c2cccc(CNc3ccc(OCC(=O)O)cc3)c2)c(C)c1 [Compound I-39, 2-(4-((4′-(2-methoxymethoxy)-2′,6′-dimethyl-[1,1′-biphenyl]-3-methylene)amino)phenoxy)acetic acid]	
63	136 to 139	CCOCOc1cc(C)c(-c2cccc(CNc3ccc(OCC(=O)O)c(F)c3)c2)c(C)c1 [Compound I-40, 2-(2-fluoro-4-((4′-(2-ethoxymethoxy)-2′,6′-dimethyl-[1,1′-biphenyl]-3-methylene)amino)phenoxy)acetic acid]	
59	128 to 131	CCOCOc1cc(C)c(-c2cccc(CNc3ccc(OCC(=O)O)cc3)c2)c(C)c1 [Compound I-41, 2-(4-((4′-(2-ethoxymethoxy)-2′,6′-dimethyl-[1,1′-biphenyl]-3-methylene)amino)phenoxy)acetic acid]	
